Legend:
[1] = tested on: IL-6; experiment: Gene expression in rat articular chondrocytes under IL-1β stimulation, IL-6; format: cell-based; conditions: for IL-6 gene expression, percentage of inhibitory effect at the highest non toxic concentration: 6 h
Experimental: (§1) For gene expression analysis, 10 days after plating, the medium was changed and substituted with DMEM GlutaMAX I 0.4% to synchronize the cells. The cells were then co-treated in DMEM GlutaMAX I 0.4% with different concentrations of the test compounds and […] at a final concentration of 2 ng/ml for 6 h and 24 h. The test compound concentrations used have been chosen on the basis of the toxicity data.
(§2) At the end of the incubation, the supernatant was discarded, the cell were washed with cold PBS1X and scraped with 200 μl of RNA lysis buffer 1X (Nucleic Acid Purification Lysis Solution, Applied Biosystems).
(§3) Total RNA was purified using ABI Prism™ 6100 Nucleic Acid PrepStation (Applied Biosystems) following manufacturer's instructions.
(§4) Total RNA was retrotranscribed using the High-Capacity cDNA Archive Kit (Applied Biosystems-Thermo Fisher Scientific) following manufacturer's instructions.
(§5) The specific probes and primers for RealTime PCR were from Applied Biosystems (Thermo Fisher Scientific) as Assays-on-Demand™, while the probe and primers for the endogenous control 18S was a PDAR (Pre-Developed TaqMan® Assay Reagents—Applied Biosystems-Thermo Fisher Scientific).
(§6) The assays were designed to amplify target cDNA without amplifying genomic DNA.
(§7) Gene expression analysis for IL-1β, IL-6 and ADAMTS-5 were performed at 6 h incubation, while the gene expression analysis for MMP3, MMP13 and COX2 were performed at 24 h incubation.
(§8) For each compound the maximal concentration tested was dependent on the toxicity results obtained on primary rat chondrocytes.
(§9) The data analysis, with the normalisation on the amplified values for the 18S was done following the specific instruction of Applied Biosystems for the relative quantification of gene expression.

[2] = tested on: MMP3; experiment: Gene expression in rat articular chondrocytes under IL-1β stimulation, MMP3; format: cell-based; set-up: key to MMP3 gene expression, no effect: ne: no effect
Experimental: as §1, §2, §3, §4, §5, §6, §7, §8, §9

[3] = tested on: NF-kB; experiment: Gene reporter (GR) assay, NF-kB activation after TNFα in JB6 Cl 41-5a (P+) cells; format: cell-based, murine; conditions: Mus musculus, JB6 Cl 41-5a, TNFα 2 ng/ml, non toxic concentrations; read-out: Gene reporter (GR) inhibition IC50
Text: To determine if the compounds of the invention were active also in a cellular model, a gene reporter assay was established in a cell line (JB6 Cl 41-5a (P+)) know to activate Fyn kinase via an inflammatory stimuli (TNFα). GR assay measures the activation of the nuclear transcription factor NF-kB, situated down-stream the Fyn activation pathway. Products active in this analysis has to penetrate in the cell and inhibit the activation pathway of NF-kB.
The murine epithelial cell line JB6 Cl 41-5a (P+) (ATCC® Cat. #CRL-2010) was stably transfected with the pGL4.32[luc2P/NFkB-RE/Hygro] vector (Promega). Clonal selection was achieved by limiting with 80 μg/ml Hygromycin B. The clones were tested for their response to TNFα stimulus.
JB6(P+) NFkB-RE-luc2P transfected cells were used for the analysis of NF-kB activity modulation, after TNFα stimulation, by Fyn-inhibitors.
Cells were pre-treated with the different compounds for 1 h and then stimulated with 2 ng/ml TNFα for 4 h. Each tested condition was analyzed in quadruplicate.
The luciferase analysis was performed with ONE-Glo™+ToxLuciferase Reporter and Cell Viability Assay kit (Promega).

[4] = tested on: COX2; experiment: Gene expression in rat articular chondrocytes under IL-1β stimulation, COX2; format: cell-based; conditions: for COX2 gene expression, percentage of inhibitory effect at the highest non toxic concentration: 24 h
[5] = biological target: Fyn (Homo sapiens (Human), UniProt P06241); experiment: Z′-LYTE in vitro Fyn kinase activity assay; format: biochemical; conditions: ATP 50 μM; read-out: FYN KINASE INHIBITION IC50
Sequence of Fyn (P06241 whole entry): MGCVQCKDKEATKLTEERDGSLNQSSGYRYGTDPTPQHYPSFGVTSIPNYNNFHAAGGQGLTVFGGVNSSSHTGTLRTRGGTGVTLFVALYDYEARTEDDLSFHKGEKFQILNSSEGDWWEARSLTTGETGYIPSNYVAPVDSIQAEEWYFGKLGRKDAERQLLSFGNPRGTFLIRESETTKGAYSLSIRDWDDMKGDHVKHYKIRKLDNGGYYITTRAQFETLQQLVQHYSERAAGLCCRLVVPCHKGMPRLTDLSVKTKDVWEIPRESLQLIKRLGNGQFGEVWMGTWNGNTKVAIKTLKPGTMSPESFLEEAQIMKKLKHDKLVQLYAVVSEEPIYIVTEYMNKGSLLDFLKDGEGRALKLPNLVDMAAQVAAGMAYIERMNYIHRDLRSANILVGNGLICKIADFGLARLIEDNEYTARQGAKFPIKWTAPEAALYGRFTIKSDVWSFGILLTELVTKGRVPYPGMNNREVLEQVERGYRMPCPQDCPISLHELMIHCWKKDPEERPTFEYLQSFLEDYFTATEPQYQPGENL
Experimental: The Fyn kinase inhibitory activity of representative examples of compounds of Formula (1) was evaluated by Z′-LYTE™ Kinase Assay Platform (Invitrogen). Compounds were evaluated towards active Fyn (full length active, molecular weight 87.1 kDa; Invitrogen). […] Samples representing the 0% inhibition (or total enzymatic activity) were in the presence of compound diluent (1% DMSO final in Reaction Buffer 50 mMHepes, 10 mM MgCl2, 1 mM EGTA, 0.01% Brij-35, pH 7.5). The kinase reaction was carried out in a total volume of 10 μl, for 60 minutes at 25° C. The 0% Phosphorylation (i.e. no ATP) and 100% Phosphorylation Assay Controls, included in each plate, allowed to calculate the percent phosphorylation achieved in the specific reaction well. Results are expressed as percentage of inhibition and the IC50 values were calculated by non-linear curve fitting using GraphPad™ Prism software (version 6 for Windows).

[6] = biological target: VEGFR2 (Homo sapiens (Human), UniProt P35968); experiment: In vitro VEGFR2 kinase activity assay (Eurofins Cerep); format: biochemical; conditions: read-out: VEGFR2 KINASE INHIBITION IC50
Sequence of VEGFR2 (P35968 20-1356): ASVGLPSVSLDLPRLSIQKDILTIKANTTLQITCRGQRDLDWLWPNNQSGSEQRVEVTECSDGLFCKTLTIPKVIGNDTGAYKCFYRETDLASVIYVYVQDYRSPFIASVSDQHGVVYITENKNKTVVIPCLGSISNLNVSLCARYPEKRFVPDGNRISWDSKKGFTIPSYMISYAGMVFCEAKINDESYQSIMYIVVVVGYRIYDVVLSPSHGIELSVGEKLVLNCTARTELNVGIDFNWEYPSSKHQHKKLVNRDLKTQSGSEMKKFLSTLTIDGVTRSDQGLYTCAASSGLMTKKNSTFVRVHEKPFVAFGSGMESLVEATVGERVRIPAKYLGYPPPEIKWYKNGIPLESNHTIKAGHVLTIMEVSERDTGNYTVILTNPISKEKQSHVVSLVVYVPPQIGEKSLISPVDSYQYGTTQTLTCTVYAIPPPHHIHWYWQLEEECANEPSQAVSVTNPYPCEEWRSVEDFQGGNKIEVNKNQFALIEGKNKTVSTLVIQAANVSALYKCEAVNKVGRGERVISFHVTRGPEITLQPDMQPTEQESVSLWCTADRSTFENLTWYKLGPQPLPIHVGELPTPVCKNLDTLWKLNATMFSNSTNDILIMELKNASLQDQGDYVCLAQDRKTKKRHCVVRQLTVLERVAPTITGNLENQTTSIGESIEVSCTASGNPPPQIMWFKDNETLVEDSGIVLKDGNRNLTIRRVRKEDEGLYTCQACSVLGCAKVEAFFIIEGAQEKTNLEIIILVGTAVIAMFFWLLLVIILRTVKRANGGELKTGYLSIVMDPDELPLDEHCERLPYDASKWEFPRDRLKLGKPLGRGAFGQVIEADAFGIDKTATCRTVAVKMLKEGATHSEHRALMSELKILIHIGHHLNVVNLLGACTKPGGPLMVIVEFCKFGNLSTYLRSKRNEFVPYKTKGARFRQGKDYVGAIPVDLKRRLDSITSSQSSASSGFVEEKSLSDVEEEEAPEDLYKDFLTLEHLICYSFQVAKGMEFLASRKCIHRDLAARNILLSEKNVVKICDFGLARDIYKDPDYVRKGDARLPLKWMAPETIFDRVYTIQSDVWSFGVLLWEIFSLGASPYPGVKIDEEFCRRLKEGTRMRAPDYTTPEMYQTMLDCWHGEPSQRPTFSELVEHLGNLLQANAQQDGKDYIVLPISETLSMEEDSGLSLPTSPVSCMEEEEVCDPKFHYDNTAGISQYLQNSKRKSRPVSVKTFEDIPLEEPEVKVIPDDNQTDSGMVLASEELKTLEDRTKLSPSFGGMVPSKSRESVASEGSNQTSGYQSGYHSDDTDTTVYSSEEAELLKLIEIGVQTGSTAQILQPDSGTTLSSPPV
Experimental: The VEGFR2 kinase inhibitory activity of representative examples of compounds of Formula (I) assays was evaluated in Eurofins Cerep (France). The concentration range of the inhibitors under investigation was from 10^−8 M up to 10^−5 M final concentration. Some compounds were re-tested in a concentration-range starting from 10^−9 M. The results are expressed as a percent of control activity (in the absence of test compound) and the IC50 values were determined by non-linear regression analysis of the inhibition/concentration curves generated with mean replicate values.

[7] = tested on: bovine nasal septum cartilage; experiment: Inhibition of cartilage degradation (GAG release) induced by IL-1α in a bovine in vitro model; format: cell-based; set-up: key to Bovine cartilage degradation induced by IL-1α, no effect: ne: no effect
Experimental: Nasal septum cartilage was collected from an eight months-old male bovine in a local slaughterhouse.
Tissue was sprayed with ethanol 70% and immediately put in sterile PBS with Antibiotic-Antimycotic stabilized solution (PBS-AASS). It was cut in order to obtain small punches (diameter 2 mm, 1 mm-thick). washed with sterile PBS-AASS, the slices were transferred in a 96X well plate (one piece per well) in DMEM 10%+AASS. 48 h later the cartilage was stimulated in white DMEM+0.1% BSA+AASS with IL-1α […] in the absence or presence of the studied compounds.
The compounds concentration used in this analysis was chosen depending on the toxicity results obtained in rat primary chondrocytes at 48 h of incubation.
After 48 h stimulation, the culture medium was collected and stored at −80° C. The cartilage punches were digested with papain at 65° C. for 2 h in phosphate buffer (0.05M pH 6.5 with 2 mM N-acetil-L-cisteine and 2 mM EDTA).
The glycosaminoglycan (GAG) determination was done by a colorimetric assay with 1,9 dimethyl methylene blue (DMB).
Digested cartilage samples were diluted in PBS-BSA 1%. To 100 μl of diluted samples or standard we added 100 μl DMB 2X. After 5-20 min incubation the samples were read at 590 nm (Titertek Multiscan Plus).
The cartilage degradation induced by IL-1α was expressed as: GAG (medium)/total GAG (medium+cartilage)×100

[8] = tested on: ADAMTS-5; experiment: Gene expression in rat articular chondrocytes under IL-1β stimulation, ADAMTS-5; format: cell-based; conditions: for ADAMTS-5 gene expression, percentage of inhibitory effect at the highest non toxic concentration: 6 h; for IC50: Rattus norvegicus, Chondrocyte, 6 h incubation
Experimental: as §1, §2, §3, §4, §5, §6, §7, §8, §9

[9] = tested on: MMP13; experiment: Gene expression in rat articular chondrocytes under IL-1β stimulation, MMP13; format: cell-based; conditions: for MMP13 gene expression, percentage of inhibitory effect at the highest non toxic concentration: 24 h
Experimental: as §1, §2, §3, §4, §5, §6, §7, §8, §9

[10] = tested on: rat primary articular chondrocytes; experiment: Toxicity analysis (MTT) in rat primary chondrocytes; conditions: for First toxic concentration at 24 h: rat primary chondrocytes
[11] = tested on: IL-1β; experiment: Gene expression in rat articular chondrocytes under IL-1β stimulation, IL-1β; format: cell-based; conditions: for IC50: Rattus norvegicus, Chondrocyte, 6 h incubation; for IL-1β gene expression, percentage of inhibitory effect at the highest non toxic concentration: 6 h
Experimental: as §1, §2, §3, §4, §5, §6, §7, §8, §9

[12] = Bos taurus, read-out: Bovine cartilage degradation induced by IL-1α, % inhibitory effect at max concentration
[13] = Rattus norvegicus, Chondrocyte, 24 h incubation

| SMILES | IC50 [5] [nM] | IC50 [6] [nM] | IC50 [11] [nM] | IC50 [3] [nM] | COX2 gene expression, percentage of inhibitory effect at the highest non toxic concentration ([4]; 10 μM) | Bovine cartilage degradation induced by IL-1α, no effect [7] | ADAMTS-5 gene expression, percentage of inhibitory effect at the highest non toxic concentration ([8]; 10 μM) | MMP13 gene expression, percentage of inhibitory effect at the highest non toxic concentration ([9]; 10 μM) | First toxic concentration at 48 h in rat primary chondrocytes [10] [µM] | First toxic concentration at 24 h [10] [µM] | IL-6 gene expression, percentage of inhibitory effect at the highest non toxic concentration ([1]; 10 μM) | MMP3 gene expression, percentage of inhibitory effect at the highest non toxic concentration ([2]; 10 μM, 24 h) | inhibition at 1 µM [7, 12] [%] | IC50 [8] [nM] | other results |
| --- | --- | --- | --- | --- | --- | --- | --- | --- | --- | --- | --- | --- | --- | --- | --- |
| CS(=O)(=O)c1cccc(C(=O)Nc2ccc(F)c(CCc3cc(Nc4cnccn4)[nH]n3)c2)c1 [Compound 12, N-(4-fluoro-3-(2-(5-(pyrazin-2-ylamino)-1H-pyrazol-3-yl)ethyl)phenyl)-3-(methylsulfonyl)benzamide] | 24 | < 10 | 3900 | 4510 | 10 μM 63% | ne | 10 μM 57% | 10 μM 34% | 10 | >10 |  |  |  |  | IC50 ([1]; Rattus norvegicus, Chondrocyte, 6 h incubation): 2600 nM; MMP3 gene expression, no effect ([2]; 24 h): ne |
| Cc1nccnc1Nc1cc(CCc2cc(NC(=O)c3cccc(C(F)(F)F)c3)ccc2F)n[nH]1 [Compound 15, N-(4-fluoro-3-(2-(5-((3-methylpyrazin-2-yl)amino)-1H-pyrazol-3-yl)ethyl)phenyl)-3-(trifluoromethyl)benzamide] | 18 | < 10 |  |  |  |  |  |  | 3 | 10 |  |  | 96 |  | IL-6 gene expression, percentage of inhibitory effect at the highest non toxic concentration ([1]; 3 μM): 3 μM 100%; MMP3 gene expression, percentage of inhibitory effect at the highest non toxic concentration ([2]; 3 μM, 24 h): 3 μM 90%; COX2 gene expression, percentage of inhibitory effect at the highest non toxic concentration ([4]; 3 μM): 3 μM 97%; Inhibitory effect on the GAG release ([7]; at max concentration): 95-100%; ADAMTS-5 gene expression, percentage of inhibitory effect at the highest non toxic concentration ([8]; 3 μM): 3 μM 96%; MMP13 gene expression, percentage of inhibitory effect at the highest non toxic concentration ([9]; 3 μM): 3 μM 99%; IL-1β gene expression, percentage of inhibitory effect at the highest non toxic concentration ([11]; 3 μM): 3 μM 98% |
| CCNC1(c2ccc(C(=O)Nc3ccc(C)c(CCc4cc(Nc5cnccn5)[nH]n4)c3)cc2)CC1 [Compound 4, 4-(1-(ethylamino)cyclopropyl)-N-(4-methyl-3-(2-(5-(pyrazin-2-ylamino)-1H-pyrazol-3-yl)ethyl)phenyl)benzamide] | 21 | < 10 | 1700 | 2230 |  | ne |  | 10 μM 84% | 3 | >10 | 10 μM 93% | 10 μM 55% |  | 3000 | IC50 [4, 13]: 1400 nM |

Continued, in another order:

| IC50 [5] [nM] | IC50 [6] [nM] | IC50 [11] [nM] | SMILES | IC50 [3] [nM] | COX2 gene expression, percentage of inhibitory effect at the highest non toxic concentration ([4]; 10 μM) | Bovine cartilage degradation induced by IL-1α, no effect [7] | ADAMTS-5 gene expression, percentage of inhibitory effect at the highest non toxic concentration ([8]; 10 μM) | MMP13 gene expression, percentage of inhibitory effect at the highest non toxic concentration ([9]; 10 μM) | First toxic concentration at 48 h in rat primary chondrocytes [10] [µM] | First toxic concentration at 24 h [10] [µM] | IL-6 gene expression, percentage of inhibitory effect at the highest non toxic concentration ([1]; 10 μM) | MMP3 gene expression, percentage of inhibitory effect at the highest non toxic concentration ([2]; 10 μM, 24 h) | inhibition at 1 µM [7, 12] [%] | IC50 [8] [nM] | other results |
| --- | --- | --- | --- | --- | --- | --- | --- | --- | --- | --- | --- | --- | --- | --- | --- |
| 8 | < 10 |  | CCN1Cc2cnc(Nc3cc(CCc4cc(NC(=O)c5cccc(C(F)(F)F)c5)ccc4C)n[nH]3)cc2C1 [Compound 17, N-(3-(2-(5-((2-ethyl-2,3-dihydro-1H-pyrrolo[3,4-c]pyridin-6-yl)amino)-1H-pyrazol-3-yl)ethyl)-4-methylphenyl) -3-(trifluoromethyl)benzamide] | 352 | 10 μM 96% |  | 10 μM 62% | 10 μM 100% | >10 | >10 | 10 μM 100% | 10 μM 92% |  |  | inhibition at 10 µM ([7]; Bos taurus, 10 μM, read-out: Bovine cartilage degradation induced by IL-1α, % inhibitory effect at max concentration): 100%; IL-1β gene expression, percentage of inhibitory effect at the highest non toxic concentration ([11]; 10 μM): 10 μM 99% |
| 143 |  |  | Cc1ccc(NC(=O)c2cccc(C(F)(F)F)c2)cc1CCc1cnc(Nc2cnccn2)s1 [Compound 49, N-(4-methyl-3-(2-(2-(pyrazin-2-ylamino)thiazol-5-yl)ethyl)phenyl)-3-(trifluoromethyl) benzamide] | 422 |  |  |  |  | 3 | 3 |  |  | 35 | 200 | IL-6 gene expression, percentage of inhibitory effect at the highest non toxic concentration ([1]; 1 μM): 1 μM 100%; IC50 [2, 13]: 500 nM; COX2 gene expression, percentage of inhibitory effect at the highest non toxic concentration ([4]; 1 μM): 1 μM 93%; IC50 [9, 13]: 240 nM; IL-1β gene expression, percentage of inhibitory effect at the highest non toxic concentration ([11]; 1 μM): 1 μM 91% |
